Reference: US20230219956A1 (BETTA PHARMACEUTICALS CO.,LTD, priority 2019, published 2023)

Assays:
H358 cells = assay: Cell proliferation assay, H358 cells (Cell-titer Glo); assay type: cell-based; conditions: Homo sapiens, NCI-H358, 96 h incubation
Procedure: (§1) Pave the H358 cells on a 96-well ultra-low adsorption plate with 2000 cells and 190 μL/well. After incubating overnight, compound solutions of gradient concentration was prepared, and added 10 μL of DMSO solution of the test compound of each concentration to the cells of each well. The final concentration of the compound is 10000, 3333.3, 1111.1, 370.4, 123.5, 41.2, 13.7, 4.6, 1.5, 0 nM (the final concentration of DMSO is 0.25%). Incubated for 96 h at 37° C. and 5% CO2. 50 μL of Cell-titer Glo working solution was added to each well, shaked and mixed, and incubated at room temperature for 10 minutes. The multi-functional microplate reader read the luminescence value, and converted the luminescence value reading into inhibition percentage.
(§2) Inhibition percentage=(maximum value−reading)/(maximum value−minimum value)*100.
(§3) The “maximum value” was the DMSO control, the “minimum value” indicates the cell-free control group.
(§4) Graphpad Prism software was used to perform curve fitting and obtain IC50 value.
Refer to table 3 for the IC50 data of some compounds in the Examples for inhibiting H358 cells.

MIA-PACA-2 cells = assay: Cell proliferation assay, MIA-PACA-2 cells (Cell-titer Glo); assay type: cell-based; conditions: Homo sapiens, 96 h incubation
Procedure: as §1, with “the MIA-PACA-2” for “the H358”, “cells into” for “cells on”, “plate at 600 cells, 160” for “plate with 2000 cells and 190”, “added 40” for “added 10”, “10000, 2000, 400, 80, 16, 3.2, 0.64, 0.12, 0.025,” for “10000, 3333.3, 1111.1, 370.4, 123.5, 41.2, 13.7, 4.6, 1.5,”
as §2, §3, §4
Refer to Table 3 for the IC50 data of some compounds in the examples inhibiting MIA-PACA-2 cells.

Structure (SMILES)	IC50 (H358 cells)	IC50 (MIA-PACA-2 cells)
C=CC(=O)N1CC2(CCN(c3nc(C4CCN(Cc5cnn(C)c5)CC4)nc4c(OCC(F)(F)F)c(-c5c(C)ccc6[nH]ncc56)c(C=C)cc34)CC2)C1 [Example 78, 1-(7-(7-(5-methyl-1H-indazol-4-yl)-2-(1-((1-methyl-1H-pyrazol-4-yl)methyl)piperidin-4-yl]-8-(2,2,2-trifluoroethoxy)-6-vinylquinazolin-4-yl)-2,7-diazarospiro [3.5]nonan-2-yl) propyl-2-en-1-one]	27.2 nM	62.8 nM
C=CC(=O)N1CC2(CCN(c3nc(C4CCN(C5CC6CCC(C5)N6C)CC4)nc4c(OCC(F)(F)F)c(-c5c(C)ccc6[nH]ncc56)c(C=C)cc34)CC2)C1 (centres unmarked) [Example 83, 1-(7-(7-(5-methyl-1H-indazole-4-yl)-2-(1-(8-methyl-8-azabicyclo [3.2.1]cindan-3-yl]piperidin-4-yl)8(2,2,2-trifluoroethoxy)-6-vinylquinazolin-4-yl)-2,7-diazspiro [3.5]nonan-2-yl) propyl-2-en-1-one]	159 nM	136 nM
C=CC(=O)N1CC2(CCN(c3nc(C4CCN(C)CC4)nc4c(OCCOC)c(C5CC5)c(C5CC5)cc34)CC2)C1 [Example 23]	1700 nM	647 nM
C=CC(=O)N1CC2(CCN(c3nc(C4CCN(C5COC5)CC4)nc4c(OCC(F)(F)F)c(-c5c(C)ccc6[nH]ncc56)c(C=C)cc34)CC2)C1 [Example 65, 1-(7-(7-(5-methyl-1H-indazol-4-yl)-2-(1-(oxacyclobutan-3-yl)piperidin-4-yl)-8-(2,2,2-trifluoroethoxy)-6-vinylquinazolin-4-yl)-2,7-diazspiro [3.5]nonan-2-yl) propyl-2-en-1-one]	4.4 nM	8.9 nM
C=CC(=O)N1CC2(CCN(c3nc(C4CN(C5CCC5)C4)nc4c(OCC(F)(F)F)c(-c5c(C)ccc6[nH]ncc56)c(CC)cc34)CC2)C1 [Example 43, 1-(7-(2-(1-cyclobutylazocyclobutane-3-yl)-6-ethyl-7-(5-methyl-1H-indazole-4-yl)-8-(2,2,2-trifluoroethoxy)quinazolin-4-yl)-2,7-diazarospiro [3.5]nonan-2-yl) propyl-2-en-1-one]	315 nM	378 nM
C=CC(=O)N1CC2(CCN(c3nc(C4CN(C5CCOCC5)C4)nc4c(OCC(F)(F)F)c(-c5c(C)ccc6[nH]ncc56)c(CC)cc34)CC2)C1 [Example 42, 1-(7-(6-ethyl-7-(5-methyl-1H-indazole-4-yl)-2-(1-(tetrahydro-2H-pyran-4-yl)azacyclobutane-3-yl)-8-(2,2,2-trifluoroethoxy)quinazolin-4-yl)-2,7-diazspiro [3.5]nonan-2-yl) propyl-2-en-1-one]	19.6 nM	29.6 nM
C=CC(=O)N1CC2(CCN(c3nc(C4CCN(C5CC(O)C5)CC4)nc4c(OCC(F)(F)F)c(-c5c(C)ccc6[nH]ncc56)c(C=C)cc34)CC2)C1 (centres unmarked) [Example 80]	14.9 nM	46.1 nM
C=CC(=O)N1CC2(CCN(c3nc(C4CCN(CC)CC4)nc4c(OCC(F)(F)F)c(-c5c(C)ccc6[nH]ncc56)c(C=C)cc34)CC2)C1 [Example 9, 1-(7-(2-(1-ethylpiperidin-4-yl)-7-(5-methyl-1H-indazol-4-yl)-8-(2,2,2-trifluoroethoxy)-6-vinylquinazolin-4-yl)-2,7-diazaspiro[3.5]nonan-2-yl)prop-2-en-1-one]	3.7 nM	2.1 nM
C=CC(=O)N1CC2(CCN(c3nc(C4CCN(C)CC4)nc4c(OC5CCC5)c(-c5c(C)ccc6[nH]ncc56)c(CC)cc34)CC2)C1 [Example 26]	24.9 nM	68.2 nM
C=CC(=O)N1CC2(CCN(c3nc(C4CCN(C(C)CO)CC4)nc4c(OCC(F)(F)F)c(-c5c(C)ccc6[nH]ncc56)c(C=C)cc34)CC2)C1 (stereo not drawn) [Example 68, l-(7-(2-(l-(1-hydroxypropane-2-yl)piperidin-4-yl)-7-(5-methyl-1H-indazol-4-yl)-8-(2,2,2-trifluoroethoxy)-6-vinylquinazolin-4-yl)-2,7-diazspiro [3.5]nonan-2-yl) propyl-2-en-1-one]	1.6 nM	2.4 nM
C=CC(=O)N1CC2(CCN(c3nc(C4CCN(CCC#N)CC4)nc4c(OCC(F)(F)F)c(-c5c(C)ccc6[nH]ncc56)c(C=C)cc34)CC2)C1 [Example 59, 3-(4-(4-(2-acryloyl-2,7-diazazospiro [3.5]nonan-7-yl)-7-(5-methyl-1H-indazole-4-yl)-8-(2,2,2-trifluoroethoxy)-6-vinylquinazolin-2-yl)piperidin-1-yl) propionitrile]	6.4 nM	6.9 nM
C=CC(=O)N1CC2(CCN(c3nc(C4CCN(C)CC4)nc4c(OCC5(C#N)CC5)c(-c5c(C)ccc6[nH]ncc56)c(C=C)cc34)CC2)C1 [Example 49]	11.5 nM	9.8 nM
C=CC(=O)N1CC2(CCN(c3nc(C4CCN(C(C)C)CC4)nc4c(OCC(F)(F)F)c(-c5c(C)ccc6[nH]ncc56)c(C=C)cc34)CC2)C1 [Example 71]	7.4 nM	8.3 nM
C=CC(=O)N1CC2(CCN(c3nc(C4CCN(C)CC4)nc4c(OCC(F)(F)F)c(-c5c(C)cnc6[nH]ncc56)c(C=C)cc34)CC2)C1 [Example 53, 1-(7-(7-(5-methyl-1H-pyrazolo[3,4-b]pyridin-4-yl)-2-(1-methylpiperidine-4-yl)-8-(2,2,2-trifluoroethoxy)-6-vinylquinazolin-4-yl)-2,7-diazaspiro[3.5]nonan-2-yl)prop-2-en-1-one]	163 nM	105 nM
C=CC(=O)N1CC2(CCN(c3nc(C4CCN(C)CC4)nc4c(OCC(F)(F)F)c(-c5c(C)ccc6[nH]ncc56)c(C5CC5)cc34)CC2)C1 [Example 16]	3.2 nM	4.8 nM
C=CC(=O)N1CC2(CCN(c3nc(C4CCN(C)CC4)nc4c(OCC(F)(F)F)c(-c5cc(F)cc(OC)c5)c(C5CC5)cc34)CC2)C1 [Example 21]	2720 nM	
C=CC(=O)N1CC2(CCN(c3nc(C4CCN(C)CC4)nc4c(OCC(F)(F)F)c(-c5ccc6cn[nH]c6c5)c(C5CC5)cc34)CC2)C1 [Example 19]		2290 nM
C=CC(=O)N1CC2(CCN(c3nc(C4CCN(C)CC4)nc4c(Oc5c(C)ccc6[nH]ncc56)cccc34)CC2)C1 [Example 54]		9600 nM

The next lines start with the values.

IC50 (H358 cells)	IC50 (MIA-PACA-2 cells)	Structure (SMILES)
4.7 nM	4.8 nM	C=CC(=O)N1CC2(CCN(c3nc(C4CCN(C)CC4)nc4c(OCC)c(-c5c(C)ccc6[nH]ncc56)c(C=C)cc34)CC2)C1 [Example 11, 1-(7-(8-ethoxy-7-(5-methyl-1H-indazol-4-yl)-2-(1-methylpiperidin-4-yl)-6-vinylquinazolin-4-yl)-2,7-diazaspiro[3.5]nonan-2-yl)prop-2-en-1-one]
1080 nM	455 nM	C=CC(=O)N1CC2(CCN(c3nc(C4CCN(C)CC4)nc4c(OCCF)c(-c5c(C)ccc6[nH]ncc56)c(CC)cc34)CC2)C1 [Example 29]
44.7 nM	61.4 nM	C=CC(=O)N1CC2(CCN(c3nc(C4CCN(C)CC4)nc4c(OCC(F)F)c(-c5c(C)ccc6[nH]ncc56)c(CC)cc34)CC2)C1 [Example 28]
76.2 nM	107 nM	C=CC(=O)N1CC2(CCN(c3nc(C4CCN(C)CC4)nc4c(OC)c(-c5c(C)ccc6[nH]ncc56)c(Cl)cc34)CC2)C1 [Example 12, 1-(7-(6-chloro-8-methoxy-7-(5-methyl-1H-indazol-4-yl)-2-(1-methylpiperidine-4-yl)-quinazolin-4-yl)-2,7-diazaspiro[3.5]nonan-2-yl)prop-2-en-1-one]
17.9 nM	16.7 nM	C=CC(=O)N1CC2(CCN(c3nc(C4CCN(C)CC4)nc4c(OCC(F)(F)F)c(-c5c(C)ccc6[nH]ncc56)c(Cl)cc34)CC2)C1 [Example 32, 1-(7-(6-chloro-7-(5-methyl-1H-indazol-4-yl)-2-(1-methylpiperidin-4-yl)-8-(2,2,2-trifluoroethoxy)quinazoline-4-yl)-2,7-diazaspiro[3.5]nonan-2-yl)prop-2-en-1-one]
20.4 nM	91.9 nM	C=CC(=O)N1CC2(CCN(c3nc(C4CCN(C)CC4)nc4c(OCC5CC5)c(-c5c(C)ccc6[nH]ncc56)c(CC)cc34)CC2)C1 [Example 31]
	50.5 nM	C=CC(=O)N1CC2(CCN(c3nc(C4CCN(C)CC4)nc4c(C)c(-c5c(C)ccc6[nH]ncc56)c(C=C)cc34)CC2)C1 [Example 15, 1-(7-(8-methyl-7-(5-methyl-1H-indazol-4-yl)-2-(1-methylpiperidin-4-yl)-6-vinylquinazolin-4-yl)-2,7-diazaspiro[3.5]nonan-2-yl)prop-2-en-1-one]
	25 nM	C=CC(=O)N1CC2(CCN(c3nc(C4CCN(C)CC4)nc4c(OCC)c(-c5c(C)ccc6[nH]ncc56)c(Cl)cc34)CC2)C1 [Example 10, 1-(7-(6-chloro-8-ethoxy-7-(5-methyl-1H-indazol-4-yl)-2-(1-methylpiperidine-4-yl)-quinazolin-4-yl)-2,7-diazaspiro[3.5]nonan-2-yl)prop-2-en-1-one]
